Test results reported in patent US20130041005A1, “PHARMACEUTICAL COMPOSITIONS COMPRISING NEUROPILIN INHIBITORS, AND THEIR USE FOR THE PREVENTION AND/OR TREATMENT OF ANGIOGENIC DISORDERS AND CANCERS” (TRAGEX PHARMA, priority 2011, published 2013).
“Also recorded” adds a separate entry of the source.

Tests used:
PC-3 = assay: WST-1 proliferation assay, PC-3; assay type: cell-based; details: Homo sapiens; for inhibition at 0.1 µM: PC-3, 0.1 μM; for inhibition at 0.5 µM: PC-3, 0.5 μM; for inhibition at 1 µM: PC-3, 1 μM; for IC50: Prostate PC-3, 72 h, read-out: Anti-proliferative activity IC50 (μM) ± SD
Source text: Several cancer cell lines were used: breast cancer cells (MDA-MB-231 (ATTCC® Number HTB-26™), MDA-MB-436 (ATTCC® Number HTB-130™), MDA-MB-438, BT-474 (ATTCC® Number HTB-20™)); cervical cancer cells (HeLa (ATTCC® Number CCL-2™)); colon cancer cells (HCT-116 (ATTCC® Number CCL-247™) and HT-29 (ATTCC® Number HTB-38™)); osteosarcoma cells (U2OS (ATTCC® Number HTB-96™)); pancreas cancer cells (MIA PaCa-2 (ATTCC® Number CRL-1420™) and Panc-10.5 (ATTCC® Number CRL-2547™)); prostate cancer cells (PC-3 (ATTCC® Number CRL-1435™) and LNCaP (ATTCC® Number CRL-1740™)); brain cancer cells (U87 glioblastoma (ATTCC® Number HTB-14™) and SH-SYSY neuroblastoma (ATTCC® Number CRL-2266™)).
All the cancer cell lines were maintained in cultured in DMEM GlutaMAX™ (GIBCO Invitrogen, France, cat no 31966047) enhanced with 10% foetal bovine serum (GIBCO Invitrogen, France, cat no 10270-106) and 1% penicillin G/streptomycin (GIBCO Invitrogen, France, cat no 15140-122). Only Panc-10.5 cells were cultivated in RPMI 1640 medium (Gibco) supplemented with 2 mM L-glutamine, 1.5 g/L sodium bicarbonate, 4.5 g/L glucose, 10 mM HEPES, 1 mM sodium pyruvate, 10 Units/ml human insulin, […] (SVF): 15% (75 ml in 500 ml of medium).
Cells were grown as subconfluent monolayer and cultured in 75 cm^2 flasks at 37° C., 5% CO2 in a humidified atmosphere, and medium was changed every two days. Only cells from passages 2-6 were used for the experiments.
After observation of cells under the microscope, old media were removed and the adherent cells washed gently twice with PBS (Phosphate Buffer Saline, —Ca^2+, —Mg^2+, Lonza cat no: 17-512F/12). All cells were detached with 3 ml of trypsin/EDTA (chelator of calcium and magnesium ions) (Lonza), incubated for 5 min at 37° C., and examined using a microscope to ensure that the cells were detached and floating. Then, 3 ml TNS (Trypsin Neutralizing Solution, Lonza, France, cat no CC-5002) or of culture medium were added to inactivate the trypsin, and the cell suspension was transferred in a falcon and centrifuged for 7 min at 1400 rpm. The supernatant was removed and the cell pellet resuspended in […] of culture medium. 50 μl of this solution were transferred in 20 μl of isotonic solution and the cells were counted by count cellular (Beckman Coulter). At day 0, 200 μl of cellular suspension (3.10^3 cells/well for the HUVEC cells, breast cancer cells (MDA-MB-231 1.10^4 cells/well, MDA-MB-436 1.10^4 cells/well, MDA-MB-438 2.10^4 cells/well, BT-474 2.5.10^4 cells/well); cervical cancer cells (HeLa 5.000 cells/well); colon cancer cells (HCT-116 5.10^3 cells/well, HCT-29 1.1.10^4 cells/well); osteosarcoma cells (U2OS 8.10^3 cells/well); pancreas cancer cells (MIA PaCa-2 5.10^3 cells/well, Panc-10.5 1.5.10^4 cells/well); prostate cancer cells (PC-3 4.10^3 cells/well, LNCaP 2.10^4 cells/well); brain cancer cells (U87 5.10^3 cells/well, SH-SYSY 8.10^4 cells/well)) were then plated on 96 well plates and incubated at 37° C. in a humidified atmosphere of 5% CO2 for 24 h.
At day 1, the compounds 1 or 2 of the invention were added at increasing concentrations (0.1-10 μM) in the wells and plates were incubated at 37° C. in a humidified atmosphere of 5% CO2 for 72 h.
The cell proliferation WST-1 assay is a colorimetric assay for the quantification of cell proliferation and viability, based on the enzymatic cleavage of the tetrazolium salt WST-1 added to the culture medium, to a water soluble colored formazan dye, detected by absorbance at 450 nm, by mitochondrial succinate-tetrazolium reductase in viable cells. An augmentation in enzyme activity will then lead to an increase in the amount of formazan dye formed, which directly correlates to the number of metabolically active cells in the culture.
After an incubation period of 72 h, at day 4, were prepared the 19 ml medium with reagent WST-1 1 ml ([…]). The medium was removed from the 96 microplate and 200 μl of solution WST-1/medium were added for each well. […]

[1] = system: endothelial (HUVEC) cells; assay: Apoptosis assay (Annexin V-FITC/PI), HUVEC; assay type: cell-based; details: IC50 concentration, 72 h (FIG. 2B)
Description: The level of apoptosis in endothelial (HUVEC) and breast cancer cells (MDA-MB-231) was detected by Annexin V-FITC Apoptosis Detection Kit (ref 556547, BD Biosciences, France) according to the manufacturer's instructions. Briefly, HUVEC and MDA-MB-231 cells were treated separately with DMSO (control) and the compounds of the invention at the concentration corresponding to the IC50, obtained by the proliferation assay, for 72 h. After treatment, all cell including both detached and attached cells were collected, centrifugated at 14000 rpm for 5 min and the apoptotic cells were detected by staining with Annexin V-FITC and (propidium iodide) PI. The cells were resuspended in 100 μl Annexin V binding buffer (10 mM Hepes/NaOH, pH 7.4, 140 mM NaCl, […]) containing 5 μl of Annexin V-FITC and 5 μl of PI (propidium iodide). Samples were gently mixed and incubated for 2 h on ice and in the dark. Viable and apoptotic cell were detected by flow citometry (FACS Calibur Becton Dickinson, France). Apoptotic cells include both the early apoptotic portion (Annexin V-positive) and the late apoptotic portion (Annexin V- and PI-positive). Staurosporine is used as a positive control of apoptosis induction.

SMILES | inhibition at 0.1 µM (PC-3) | inhibition at 0.5 µM (PC-3) | inhibition at 1 µM (PC-3) | IC50 (PC-3) | induction of apoptosis in endothelial cells [1]
Cc1ccc(-c2nc3ccccc3[nH]2)cc1NC(=S)NC(=O)c1ccc2c(c1)OCCO2 [Compound 1, N-[5-(1H-benzimidazol-2-yl)-2-methylphenyl]-N′-(2,3-dihydro-1,4-benzodioxin-6-ylcarbonyl)thiourea] | 3% | 25% | 47% | 1.7 ± 0.04 µM | induced the apoptosis; also recorded: induction of apoptosis
O=C(NC(=S)Nc1cccc(-c2nc3ccccc3[nH]2)c1)c1ccc2c(c1)OCCO2 [Compound 2, N-[3-(1H-benzimidazol-2-yl)phenyl]-N′-(2,3-dihydro-1,4-benzodioxin-6-ylcarbonyl)thiourea] | 29% | 46% | 46% | 1.5 ± 0.12 µM | induced the apoptosis; also recorded: induction of apoptosis
